Consider two compounds from patent US20250059139A1, “COMPOUNDS FOR TREATMENT OF CANCER” (THE JOHNS HOPKINS UNIVERSITY, priority 2021, published 2025).

One series deals with T1, fl-HDAC4 (Homo sapiens, UniProt P56524).
T1 construct: Full-length (fl) [A.A. 1-1082] recombinant human histone deacetylase 4 (rhHDAC4) protein; FLAG (N); GST (given as 'with or without'); made in house; host or cells: HEK293-T
The series can be described thus: HDAC4 enzymatic assay with Lys(Tfa)-AMC substrate. It is filed as biochemical. As for the experimental part: HDAC4 Enzymatic Assay. HDAC4 activity of the various recombinant forms used through these studies was assayed using the small non-protein Lys(Tfa)-AMC as described previously (Bottomley et al. J. Biol. Chem. 2008, 283:26694-26704). The specificity of this assay is documented via its inhibition by a small molecule trifluoroacetylthiophene-trifluoromethylketone derivative (TFT-PIP) described previously (id.).
Thus, TasQ's inhibition of HDAC4/NCoR1 formation involves only its binding to HDAC4. To resolve whether such TasQ binding involves the ZCD vs. ZRD in HDAC4, we took advantage of the fact that while HDAC4 has only marginal deacetylase activity against acetylated lysine-containing proteins, it can deacetylate a small non-protein trifluoroacetamide substrate (a.k.a., Lys(Tfa)-AMC). This reaction is inhibited by a small molecule trifluoroacetylthiophene-trifluoromethylketone derivative [a.k.a., TFT-PIP (FIG. 16)] due to its binding to the catalytic Zn^2+ in the ZCD, which locks the ZRD in the open conformation (Bottomley 2008).

For series [1], the system named is CWR22-RH human prostate cancer PDXs. The series can be described thus: In vivo growth of CWR22-RH xenografts in castrate NSG male mice. The conditions noted are these: castrate mice treated orally over a 3 week period, 10 mg/kg/d, n = 5/group. An excerpt: Prostate Cancer Models. The source, history, and characteristics of the human prostate cancer cell lines and PDXs used, as well as cell culture conditions for their in vitro maintenance and the in vivo protocol for xenograft growth in triple immune-deficient NSG (i.e. NOD.Cg-PrkdcScidIl2rgtmlWji/Szj), adult (>8 week old) male mice obtained from the Sidney Kimmel Comprehensive Cancer Center (SKCCC) Animal Core Facility are described previously (Isaacs 2013; Brennen et al. JCI Insight. 2021, 6(8):e146827; Zhu et al. Oncogene 2020, 39(45): 6935-6949). Similar information concerning the TRAMP-C2 and B6CaP mouse prostate cancers originating in a C57BL/6J male mice are described previously (Foster et al. Cancer Res. 1997, 57: 3325-3330; Simons et al. Oncotarget. 2019, 10(64):6845-6854). In vitro growth curves were determined as described (Isaacs 2013). In vivo growth response to oral daily TasQ (10 mg/kg/d) of TRAMP-C2 mouse prostate cancers was evaluated in C57BL/6J syngeneic wild type vs. NOX-2 vs. iNOS null male mice obtained from Jackson Laboratory (Bar Harbor, ME). Growth response to oral daily TasQ (10 mg/kg/d) of TRAMP-C2 and B6CaP mouse prostate cancers was also evaluated in S100A9 null C57BL′6J male mice obtained from Dmitry Gabrilovich (Wistar Institute). All lines were mycoplasma negative using the MycoSensor PCR Assay kit (Agilent Technologies) and genetically authenticated within the last 6 months using short tandem repeat profiling conducted by the Johns Hopkins Genetic Resource Core Facility. In vitro growth curves were determined as described (Isaacs 2013). Growth response to daily oral TasQ vs. ESATA-20 (both at 10 mg/kg/d) of Myc-CaP-CR mouse prostate cancer was evaluated in syngeneic FVB/NJ castrate male mice from Jackson Laboratory. Animal studies were conducted according to animal protocols approved by Johns Hopkins Animal Care and Use Committee. Tumor volume measurements were as described previously (id.). In vivo experiments were repeated multiple independent times for each model used with 3-5 mice per treatment grouping.
(§1) Oral Drug treatment. TasQ at the indicated dose was initially dissolved with equal molar 1 N sodium hydroxide. This solution was diluted with sterile water and the mixture stirred for 1 hr. The pH was then adjusted with 1 N HCl to 8.9 and 200 μL given daily via oral gavage.
Due to these combined effects, maximal growth inhibition of CWR22-RH, a castration-resistant prostate cancer patient-derived xenograft (PDX), is obtained as maintenance therapy with oral daily dosing of ≥5 mg/kg/d (FIG. 1). […] Previous studies documented that in vitro treatment of human prostate cancer cells (LNCaP) with 1-10 μM TasQ rapidly (i.e., ≤1 day) induces the transcription of a series of AHR target genes (e.g., Cyp1a1, Cyp1b1, AHRR, TPARP, GDF15) (Olsson 2010). […]

The subject of the next series is thymus. The series can be described thus: AHR agonist induced thymus regression in FVB male mice. The series is classed as in vivo, mouse. As for the experimental part:
To evaluate AHR agonist induced thymus regression, groups of five 4-week old FVB male mice from Jackson Laboratory were treated with either vehicle, Linomide, TasQ, or its analogs daily by orally gavage for 2 weeks and then the thymus removed and weighted.
as §1
This means that in the clinical setting, dose-escalation above 1 mg/d of TasQ as needed to reach this >2 μM blood level for optimal anti-cancer efficacy will also enhance unwanted off-target AHR induction. Therefore, a medicinal chemical approach was undertaken to identify third generation quinoline-3-carboxamide analogs with increased HDAC4 inhibition, but with reduced AHR agonism. The approach taken is based upon the earlier SPR analysis documenting that TasQ linked to the surface chip via its aniline-N is a potent binder of HDAC4. Thus, a series of quinoline-3-carboxamide analogs were synthesized focusing upon adduct changes at the aniline-N. These analogs were synthesized as described in Example 1, and were initially screened for their AHR agonist activity using the in vitro human cell-based ARE-driven luciferase reporter gene assay (Table 3).

For series [2], the system named is LvCaP-3 human prostate cancer PDXs. The series can be described thus: In vivo growth of LvCaP-3 xenografts in castrate hosts. The conditions noted are these: daily oral 10 mg/kg. The text has this: Prostate Cancer Models. The source, history, and characteristics of the human prostate cancer cell lines and PDXs used, as well as cell culture conditions for their in vitro maintenance and the in vivo protocol for xenograft growth in triple immune-deficient NSG (i.e. NOD.Cg-PrkdcScidIl2rgtmlWji/Szj), adult (>8 week old) male mice obtained from the Sidney Kimmel Comprehensive Cancer Center (SKCCC) Animal Core Facility are described previously (Isaacs 2013; Brennen et al. JCI Insight. 2021, 6(8):e146827; Zhu et al. Oncogene 2020, 39(45): 6935-6949). […] In vitro growth curves were determined as described (Isaacs 2013). In vivo growth response to oral daily TasQ (10 mg/kg/d) of TRAMP-C2 mouse prostate cancers was evaluated in C57BL/6J syngeneic wild type vs. NOX-2 vs. iNOS null male mice obtained from Jackson Laboratory (Bar Harbor, ME). Growth response to oral daily TasQ (10 mg/kg/d) of TRAMP-C2 and B6CaP mouse prostate cancers was also evaluated in S100A9 null C57BL′6J male mice obtained from Dmitry Gabrilovich (Wistar Institute). […] In vitro growth curves were determined as described (Isaacs 2013). Growth response to daily oral TasQ vs. ESATA-20 (both at 10 mg/kg/d) of Myc-CaP-CR mouse prostate cancer was evaluated in syngeneic FVB/NJ castrate male mice from Jackson Laboratory. […]

T1 sequence (P56524 whole entry): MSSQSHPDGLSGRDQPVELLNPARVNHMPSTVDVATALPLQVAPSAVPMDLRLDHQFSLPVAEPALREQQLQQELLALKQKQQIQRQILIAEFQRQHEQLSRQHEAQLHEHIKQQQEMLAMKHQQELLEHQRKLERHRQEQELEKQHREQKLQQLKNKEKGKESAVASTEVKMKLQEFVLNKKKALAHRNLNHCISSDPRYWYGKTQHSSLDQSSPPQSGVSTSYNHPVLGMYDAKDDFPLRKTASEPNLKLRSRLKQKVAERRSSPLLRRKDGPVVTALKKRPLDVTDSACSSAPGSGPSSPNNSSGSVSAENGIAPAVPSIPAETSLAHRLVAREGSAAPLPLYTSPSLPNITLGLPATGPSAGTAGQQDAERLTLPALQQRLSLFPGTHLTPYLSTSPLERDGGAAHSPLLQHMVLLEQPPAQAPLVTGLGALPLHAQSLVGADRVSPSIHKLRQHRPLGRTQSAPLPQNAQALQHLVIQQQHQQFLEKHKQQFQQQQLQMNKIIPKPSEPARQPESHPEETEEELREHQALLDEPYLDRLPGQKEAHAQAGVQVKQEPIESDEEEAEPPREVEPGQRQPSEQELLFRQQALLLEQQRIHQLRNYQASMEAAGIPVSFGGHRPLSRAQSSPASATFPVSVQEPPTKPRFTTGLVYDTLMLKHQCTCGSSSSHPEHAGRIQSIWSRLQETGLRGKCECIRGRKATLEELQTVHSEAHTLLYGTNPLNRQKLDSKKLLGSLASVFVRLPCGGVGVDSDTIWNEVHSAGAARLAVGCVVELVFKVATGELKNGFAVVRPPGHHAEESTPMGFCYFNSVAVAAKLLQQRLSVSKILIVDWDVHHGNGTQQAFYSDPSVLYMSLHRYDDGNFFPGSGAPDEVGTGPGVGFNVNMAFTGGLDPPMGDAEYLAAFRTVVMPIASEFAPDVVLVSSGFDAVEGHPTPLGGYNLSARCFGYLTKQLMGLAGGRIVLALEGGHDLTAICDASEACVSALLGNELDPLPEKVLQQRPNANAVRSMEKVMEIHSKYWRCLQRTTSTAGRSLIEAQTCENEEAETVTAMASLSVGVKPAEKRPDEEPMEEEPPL

Take `O=C(c1ccc(C(=O)C(F)(F)F)s1)N1CCn2c(-c3ccccc3)cnc2C1` [TFT-PIP]: on fl-HDAC4, the “effect on enzymatic activity of fl-HDAC4” value is on record as “inhibited”.
For `c1ccc2c(c1)cc1ccc3cccc4ccc2c1c34` [Benzo[α]pyrene, benzo[a]pyrene], the “CWR22-RH Tumor Growth (% inhibition +/− SD)” value in series [1] is less than 10%. In the series on thymus (10 mg/kg/d oral for 14 days), the thymus weight worked out at 27 ± 8 mg. In addition, the “Thymus Regression (% decrease weight +/− SD)” value with thymus (mice treated orally for 2 weeks, 10 mg/kg/d, n = 5/group) is on record as 51 +/− 7%. Also, in series [2], the “inhibition of growth of LvCaP-3 xenografts at the end of study” value is listed as “completely lacks therapeutic efficacy”.
